Test results: PubChem BioAssay AID1918938 (Molecular Pharmacology Branch, DTP, NCI, 2023)

System: 556581-035-R-J1-PDC complex spheroid viability
Test: Anticancer human tumor 556581-035-R-J1-PDC patient-derived ovarian carcinoma cell line growth inhibition
Settings: for IC50: curve of first compound; for viability, T/C: stronger effect = lower value
Procedure, shortened: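 Multicellular complex spheroids of tumor cells with human endothelial cells (HUVEC) and mesenchymal stem cells; the LSD1 inhibitor iadademstat was combined with standard-of-care or investigational agents. Top concentration at or near clinical Cmax, half-log dilutions; final DMSO ≤0.25%.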

[1] = second compound 0.1 µM, first compound 0.0316 µM
[2] = second compound 0.1 µM, first compound 0.1 µM
[3] = second compound 0.1 µM, first compound 0.316 µM
[4] = second compound 0.1 µM, first compound 1 µM
[5] = second compound 0.1 µM, first compound 3.16 µM
[6] = second compound 0.1 µM, first compound 10 µM
[7] = second compound 0.316 µM, first compound 0.0316 µM
[8] = second compound 0.316 µM, first compound 0.1 µM
[9] = second compound 0.316 µM, first compound 0.316 µM
[10] = second compound 0.316 µM, first compound 1 µM
[11] = second compound 0.316 µM, first compound 3.16 µM
[12] = second compound 0.316 µM, first compound 10 µM
[13] = second compound 1 µM, first compound 0.0316 µM
[14] = second compound 1 µM, first compound 0.1 µM
[15] = second compound 1 µM, first compound 0.316 µM
[16] = second compound 1 µM, first compound 1 µM
[17] = second compound 1 µM, first compound 3.16 µM
[18] = second compound 1 µM, first compound 10 µM
[19] = second compound 3.16 µM, first compound 0.0316 µM
[20] = second compound 3.16 µM, first compound 0.1 µM
[21] = second compound 3.16 µM, first compound 0.316 µM
[22] = second compound 3.16 µM, first compound 1 µM
[23] = second compound 3.16 µM, first compound 3.16 µM
[24] = second compound 3.16 µM, first compound 10 µM
[25] = second compound 10 µM, first compound 0.0316 µM
[26] = second compound 10 µM, first compound 0.1 µM
[27] = second compound 10 µM, first compound 0.316 µM
[28] = second compound 10 µM, first compound 1 µM
[29] = second compound 10 µM, first compound 3.16 µM
[30] = second compound 10 µM, first compound 10 µM
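Note: spheroids exposed to agents for seven days.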
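Throughout, for viability, T/C: 100% = DMSO vehicle control wells.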

What does the source list for `CC(C)c1c(-c2ccccc2)nc2c(C#N)c[nH]n2c1=O` + NC1CCC(NC2CC2c2ccccc2)CC1?
IC50 (second compound 0.1 µM): > 10000 nM; IC50 (second compound 0.316 µM): > 10000 nM; IC50 (second compound 1 µM): > 10000 nM; IC50 (second compound 3.16 µM): 8290 nM; IC50 (second compound 10 µM): 4840 nM; viability, T/C [1]: 93.2%; viability, T/C [2]: 94.5%; viability, T/C [3]: 90.9%; viability, T/C [4]: 87.9%; viability, T/C [5]: 83%; viability, T/C [6]: 56.5%; viability, T/C [7]: 87%; viability, T/C [8]: 79.1%; viability, T/C [9]: 86.3%; viability, T/C [10]: 78.3%; viability, T/C [11]: 71.4%; viability, T/C [12]: 54.4%; viability, T/C [13]: 72.2%; viability, T/C [14]: 78.2%; viability, T/C [15]: 78%; viability, T/C [16]: 82.3%; viability, T/C [17]: 78.7%; viability, T/C [18]: 53.7%; viability, T/C [19]: 85.4%; viability, T/C [20]: 76.4%; viability, T/C [21]: 77.8%; viability, T/C [22]: 76%; viability, T/C [23]: 68.3%; viability, T/C [24]: 46.2%; viability, T/C [25]: 70%; viability, T/C [26]: 73.8%; viability, T/C [27]: 76%; viability, T/C [28]: 66.8%; viability, T/C [29]: 54%; viability, T/C [30]: 43.7%

How did the IC50 (second compound 0.1 µM) turn out when `CC1COCCN1c1cc(-c2ccnn2C)c2ccnc(-c3ccn[nH]3)c2n1` (stereo not given) + NC1CCC(NC2CC2c2ccccc2)CC1 was run?
Its IC50 is 46.2 nM.

And the IC50 (second compound 0.316 µM)?
The IC50 was 27 nM.

What about the IC50 (second compound 1 µM) of the same compound?
The IC50 was 25 nM.

And the IC50 (second compound 3.16 µM)?
The IC50 was 21.6 nM.

And the IC50 (second compound 10 µM)?
The IC50 was 11.9 nM.

And the viability, T/C (second compound 0.1 µM, first compound 0.00316 µM)?
Its viability, T/C is 64.5%.

What about the viability, T/C (second compound 0.1 µM, first compound 0.01 µM) of the same compound?
Its viability, T/C is 61.4%.

What about the viability, T/C [1] of the same compound?
The viability, T/C was 55%.

And the viability, T/C [2]?
Its viability, T/C is 38.3%.

And the viability, T/C [3]?
Its viability, T/C is 36.1%.

And the viability, T/C [4]?
Its viability, T/C is 14.8%.

What about the viability, T/C (second compound 0.316 µM, first compound 0.00316 µM) of the same compound?
Its viability, T/C is 72.9%.

What about the viability, T/C (second compound 0.316 µM, first compound 0.01 µM) of the same compound?
The viability, T/C was 58.8%.

And the viability, T/C [7]?
Its viability, T/C is 46.3%.

And the viability, T/C [8]?
Its viability, T/C is 38.2%.

And the viability, T/C [9]?
The viability, T/C was 29.8%.

And the viability, T/C [10]?
The viability, T/C was 15.3%.

What about the viability, T/C (second compound 1 µM, first compound 0.00316 µM) of the same compound?
Its viability, T/C is 61.1%.

And the viability, T/C (second compound 1 µM, first compound 0.01 µM)?
The viability, T/C was 59.7%.

And the viability, T/C [13]?
Its viability, T/C is 45.6%.

What about the viability, T/C [14] of the same compound?
The viability, T/C was 36.8%.

What about the viability, T/C [15] of the same compound?
The viability, T/C was 36.8%.

And the viability, T/C [16]?
Its viability, T/C is 17.9%.

What about the viability, T/C (second compound 3.16 µM, first compound 0.00316 µM) of the same compound?
Its viability, T/C is 62.5%.

What about the viability, T/C (second compound 3.16 µM, first compound 0.01 µM) of the same compound?
The viability, T/C was 54.7%.

What about the viability, T/C [19] of the same compound?
Its viability, T/C is 44.3%.

What about the viability, T/C [20] of the same compound?
The viability, T/C was 39.8%.

And the viability, T/C [21]?
Its viability, T/C is 35.8%.

What about the viability, T/C [22] of the same compound?
The viability, T/C was 19.2%.

What about the viability, T/C (second compound 10 µM, first compound 0.00316 µM) of the same compound?
The viability, T/C was 50%.

And the viability, T/C (second compound 10 µM, first compound 0.01 µM)?
The viability, T/C was 55.5%.

And the viability, T/C [25]?
Its viability, T/C is 44.8%.

What about the viability, T/C [26] of the same compound?
The viability, T/C was 38%.

What about the viability, T/C [27] of the same compound?
Its viability, T/C is 30.5%.

What about the viability, T/C [28] of the same compound?
The viability, T/C was 17.3%.

What does the source list for `COc1ccc([C@@H](O)c2cc(-c3ncnc4cc(N5CCOCC5)ccc34)c(F)cc2Cl)nn1` + NC1CCC(NC2CC2c2ccccc2)CC1?
IC50 (second compound 0.1 µM): 943 nM; IC50 (second compound 0.316 µM): 582 nM; IC50 (second compound 1 µM): 906 nM; IC50 (second compound 3.16 µM): 847 nM; IC50 (second compound 10 µM): 639 nM; viability, T/C [1]: 91%; viability, T/C [2]: 80.4%; viability, T/C [3]: 69%; viability, T/C [4]: 47.9%; viability, T/C [5]: 37.7%; viability, T/C [6]: 32.9%; viability, T/C [7]: 80.3%; viability, T/C [8]: 81.6%; viability, T/C [9]: 60.6%; viability, T/C [10]: 39.9%; viability, T/C [11]: 37.7%; viability, T/C [12]: 28.8%; viability, T/C [13]: 76%; viability, T/C [14]: 76.1%; viability, T/C [15]: 66.9%; viability, T/C [16]: 46.6%; viability, T/C [17]: 35.6%; viability, T/C [18]: 25.6%; viability, T/C [19]: 79.5%; viability, T/C [20]: 78.6%; viability, T/C [21]: 65.3%; viability, T/C [22]: 45.3%; viability, T/C [23]: 37%; viability, T/C [24]: 25.9%; viability, T/C [25]: 63.2%; viability, T/C [26]: 63.2%; viability, T/C [27]: 56.3%; viability, T/C [28]: 44.6%; viability, T/C [29]: 33.3%; viability, T/C [30]: 17%
